According to ChEMBL document CHEMBL1955798, “Novel coumarins and 2-thioxo-coumarins as inhibitors of the tumor-associated carbonic anhydrases IX and XII” (Bioorg Med Chem, 2012):
pKi: −log10 of the molar value.

Columns and labels:
Carbonic anhydrase 2 = Carbonic anhydrase 2 (Homo sapiens, UniProt P00918); experiment: Inhibition of human carbonic anhydrase 2 after 6 hrs by stop-flow CO2 hydration assay
Carbonic anhydrase 9 = Carbonic anhydrase 9 (Homo sapiens, UniProt Q16790); experiment: Inhibition of human carbonic anhydrase 9 after 6 hrs by stop-flow CO2 hydration assay
Carbonic anhydrase 1 = Carbonic anhydrase 1 (Homo sapiens, UniProt P00915); experiment: Inhibition of human carbonic anhydrase 1 after 6 hrs by stop-flow CO2 hydration assay
Carbonic anhydrase 12 = Carbonic anhydrase 12 (Homo sapiens, UniProt O43570); experiment: Inhibition of human carbonic anhydrase 12 after 6 hrs by stop-flow CO2 hydration assay
Sequence of Carbonic anhydrase 12 (O43570 whole entry): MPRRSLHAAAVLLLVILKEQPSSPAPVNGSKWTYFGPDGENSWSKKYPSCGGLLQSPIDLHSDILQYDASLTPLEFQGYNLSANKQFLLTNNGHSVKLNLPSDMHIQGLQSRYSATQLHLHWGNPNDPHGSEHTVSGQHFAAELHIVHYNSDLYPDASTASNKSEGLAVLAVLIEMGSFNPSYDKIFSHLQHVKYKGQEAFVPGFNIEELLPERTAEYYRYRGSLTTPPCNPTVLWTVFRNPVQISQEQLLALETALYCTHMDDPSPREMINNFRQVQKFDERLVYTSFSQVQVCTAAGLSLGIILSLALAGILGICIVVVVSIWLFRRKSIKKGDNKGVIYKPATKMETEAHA

Sequence of Carbonic anhydrase 1 (P00915 whole entry): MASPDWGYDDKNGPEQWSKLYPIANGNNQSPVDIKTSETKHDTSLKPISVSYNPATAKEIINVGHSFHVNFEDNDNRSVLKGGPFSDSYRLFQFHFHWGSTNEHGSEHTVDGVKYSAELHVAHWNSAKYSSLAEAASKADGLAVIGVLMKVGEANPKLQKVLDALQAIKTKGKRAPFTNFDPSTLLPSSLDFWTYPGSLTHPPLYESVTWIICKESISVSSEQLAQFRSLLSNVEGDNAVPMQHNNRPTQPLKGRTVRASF

| SMILES | pKi (Carbonic anhydrase 2) | pKi (Carbonic anhydrase 9) | pKi (Carbonic anhydrase 1) | pKi (Carbonic anhydrase 12) |
| --- | --- | --- | --- | --- |
| CC(=O)Nc1ccc2c(C)cc(=O)oc2c1 | < 3.70 | 6.41 | – | – |
| Oc1ccc2ccc(=S)oc2c1 | < 3.70 | 6.11 | – | – |
| C=CCOc1ccc2oc(=O)ccc2c1 | < 3.70 | 6.03 | – | – |
| CC(C)(C)[Si](C)(C)Oc1ccc2oc(=O)ccc2c1 | – | 6.10 | – | – |
| CC(C)(C)[Si](C)(C)Oc1ccc2oc(=S)ccc2c1 | < 3.70 | 6.07 | – | – |
| CC(C)(C)[Si](C)(C)Oc1ccc2ccc(=S)oc2c1 | < 3.70 | 6.02 | – | – |
| C=CCOc1cc(=S)oc2ccccc12 | < 3.70 | – | – | – |
| Cc1ccc(S(=O)(=O)OCCOc2ccc3ccc(=O)oc3c2)cc1 | < 3.70 | 6.28 | – | – |
| O=c1ccc2ccc(OCCF)cc2o1 | < 3.70 | 6.17 | – | – |
| Cc1cc(C)cc(NC(=O)Nc2ccc3c(C)cc(=O)oc3c2)c1 | < 3.70 | – | – | – |
| Cc1cc(=O)oc2cc(NC(=O)OC(C)(C)C)ccc12 | < 3.70 | 6.01 | – | – |
| C=CCOc1ccc2ccc(=O)oc2c1 [7-ALLYLOXYCOUMARIN] | < 3.70 | 6.14 | 4.14 | 6.19 |

Other lines, results leading:

| pKi (Carbonic anhydrase 2) | pKi (Carbonic anhydrase 9) | pKi (Carbonic anhydrase 1) | pKi (Carbonic anhydrase 12) | SMILES |
| --- | --- | --- | --- | --- |
| – | 6.10 | – | – | Oc1ccc2oc(=S)ccc2c1 |
| < 3.70 | 6.68 | – | – | C=CCOc1cc(=O)oc2ccccc12 |
| – | 5.49 | – | – | C=CCOc1ccc2oc(=S)ccc2c1 |
| < 3.70 | 5.49 | – | – | C=CCOc1ccc2ccc(=S)oc2c1 |
| < 3.70 | 6.04 | – | – | O=c1ccc2ccc(OCCO)cc2o1 |
